Data from the supplement of paper PMC10307832.

How the values were obtained:
Assay in all cases: relative viability (nuclei count vs DMSO), 5 days (fraction); higher = more cells survive
Everolimus + OSI-027 = compound: CO[C@H]1C[C@@H]2CC[C@@H](C)[C@@](O)(O2)C(=O)C(=O)N2CCCC[C@H]2C(=O)O[C@H]([C@H](C)C[C@@H]2CC[C@@H](OCCO)[C@H](OC)C2)CC(=O)[C@H](C)/C=C(\C)[C@@H](O)[C@@H](OC)C(=O)[C@H](C)C[C@H](C)/C=C/C=C/C=C/1C [Everolimus] + COc1cccc2cc(-c3nc([C@H]4CC[C@H](C(=O)O)CC4)n4ncnc(N)c34)[nH]c12 [OSI-027] (partner 0.5 µM)
How it was run: (§1)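 Relative viability equals treated-well nuclei counts divided by vehicle-well nuclei counts. Counts came from 4× images of lung cancer cell lines grown in 1536-well plates for 5 days after pin-tool dosing on the day after seeding. Dosing used one drug alone or a fixed anchor-drug dose plus five library-drug doses (not always all listed) in √10 steps, and values are medians of duplicate plates.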

Everolimus + Luminespib = compound: CO[C@H]1C[C@@H]2CC[C@@H](C)[C@@](O)(O2)C(=O)C(=O)N2CCCC[C@H]2C(=O)O[C@H]([C@H](C)C[C@@H]2CC[C@@H](OCCO)[C@H](OC)C2)CC(=O)[C@H](C)/C=C(\C)[C@@H](O)[C@@H](OC)C(=O)[C@H](C)C[C@H](C)/C=C/C=C/C=C/1C [Everolimus] + CCNC(=O)c1noc(-c2cc(C(C)C)c(O)cc2O)c1-c1ccc(CN2CCOCC2)cc1 [Luminespib] (partner 0.01 µM)
How it was run: as §1

Everolimus + Pictilisib = compound: CO[C@H]1C[C@@H]2CC[C@@H](C)[C@@](O)(O2)C(=O)C(=O)N2CCCC[C@H]2C(=O)O[C@H]([C@H](C)C[C@@H]2CC[C@@H](OCCO)[C@H](OC)C2)CC(=O)[C@H](C)/C=C(\C)[C@@H](O)[C@@H](OC)C(=O)[C@H](C)C[C@H](C)/C=C/C=C/C=C/1C [Everolimus] + CS(=O)(=O)N1CCN(Cc2cc3nc(-c4cccc5[nH]ncc45)nc(N4CCOCC4)c3s2)CC1 [Pictilisib] (partner 1 µM)
How it was run: as §1

Everolimus + Palbociclib = compound: CO[C@H]1C[C@@H]2CC[C@@H](C)[C@@](O)(O2)C(=O)C(=O)N2CCCC[C@H]2C(=O)O[C@H]([C@H](C)C[C@@H]2CC[C@@H](OCCO)[C@H](OC)C2)CC(=O)[C@H](C)/C=C(\C)[C@@H](O)[C@@H](OC)C(=O)[C@H](C)C[C@H](C)/C=C/C=C/C=C/1C [Everolimus] + CC(=O)c1c(C)c2cnc(Nc3ccc(N4CCNCC4)cn3)nc2n(C2CCCC2)c1=O [Palbociclib] (partner 0.5 µM)
How it was run: as §1

Cell Line: NCI-H1915
- relative viability (Everolimus + OSI-027; first compound 0.01 µM): 0.531
- relative viability (Everolimus + OSI-027; first compound 0.03162 µM): 0.516
- relative viability (Everolimus + OSI-027; first compound 0.1 µM): 0.45
- relative viability (Everolimus + OSI-027; first compound 0.3162 µM): 0.512
- relative viability (Everolimus + OSI-027; first compound 1 µM): 0.49
- relative viability (Everolimus + Luminespib; first compound 0.01 µM): 0.722
- relative viability (Everolimus + Luminespib; first compound 0.03162 µM): 0.714
- relative viability (Everolimus + Luminespib; first compound 0.1 µM): 0.478
- relative viability (Everolimus + Luminespib; first compound 0.3162 µM): 0.532
- relative viability (Everolimus + Luminespib; first compound 1 µM): 0.579
- relative viability (Everolimus + Pictilisib; first compound 0.01 µM): 0.622
- relative viability (Everolimus + Pictilisib; first compound 0.03162 µM): 0.33
- relative viability (Everolimus + Pictilisib; first compound 0.1 µM): 0.493
- relative viability (Everolimus + Pictilisib; first compound 0.3162 µM): 0.625
- relative viability (Everolimus + Pictilisib; first compound 1 µM): 0.555
- relative viability (Everolimus + Palbociclib; first compound 0.01 µM): 0.398
- relative viability (Everolimus + Palbociclib; first compound 0.03162 µM): 0.347
- relative viability (Everolimus + Palbociclib; first compound 0.1 µM): 0.316
- relative viability (Everolimus + Palbociclib; first compound 0.3162 µM): 0.378
- relative viability (Everolimus + Palbociclib; first compound 1 µM): 0.334

Cell Line: NCI-H2009
- relative viability (Everolimus + OSI-027; first compound 0.01 µM): 0.34
- relative viability (Everolimus + OSI-027; first compound 0.03162 µM): 0.344
- relative viability (Everolimus + OSI-027; first compound 0.1 µM): 0.424
- relative viability (Everolimus + OSI-027; first compound 0.3162 µM): 0.374
- relative viability (Everolimus + OSI-027; first compound 1 µM): 0.397
- relative viability (Everolimus + Luminespib; first compound 0.01 µM): 0.832
- relative viability (Everolimus + Luminespib; first compound 0.03162 µM): 0.866
- relative viability (Everolimus + Luminespib; first compound 0.1 µM): 0.77
- relative viability (Everolimus + Luminespib; first compound 0.3162 µM): 0.852
- relative viability (Everolimus + Luminespib; first compound 1 µM): 0.72
- relative viability (Everolimus + Pictilisib; first compound 0.01 µM): 0.565
- relative viability (Everolimus + Pictilisib; first compound 0.03162 µM): 0.591
- relative viability (Everolimus + Pictilisib; first compound 0.1 µM): 0.394
- relative viability (Everolimus + Pictilisib; first compound 0.3162 µM): 0.673
- relative viability (Everolimus + Pictilisib; first compound 1 µM): 0.504
- relative viability (Everolimus + Palbociclib; first compound 0.01 µM): 0.105
- relative viability (Everolimus + Palbociclib; first compound 0.03162 µM): 0.109
- relative viability (Everolimus + Palbociclib; first compound 0.1 µM): 0.103
- relative viability (Everolimus + Palbociclib; first compound 0.3162 µM): 0.127
- relative viability (Everolimus + Palbociclib; first compound 1 µM): 0.108

Cell Line: BEN
- relative viability (Everolimus + OSI-027; first compound 0.01 µM): 0.247
- relative viability (Everolimus + OSI-027; first compound 0.03162 µM): 0.292
- relative viability (Everolimus + OSI-027; first compound 0.1 µM): 0.272
- relative viability (Everolimus + OSI-027; first compound 0.3162 µM): 0.253
- relative viability (Everolimus + OSI-027; first compound 1 µM): 0.239
- relative viability (Everolimus + Luminespib; first compound 0.01 µM): 0.191
- relative viability (Everolimus + Luminespib; first compound 0.03162 µM): 0.152
- relative viability (Everolimus + Luminespib; first compound 0.1 µM): 0.201
- relative viability (Everolimus + Luminespib; first compound 0.3162 µM): 0.161
- relative viability (Everolimus + Luminespib; first compound 1 µM): 0.168
- relative viability (Everolimus + Pictilisib; first compound 0.01 µM): 0.312
- relative viability (Everolimus + Pictilisib; first compound 0.03162 µM): 0.281
- relative viability (Everolimus + Pictilisib; first compound 0.1 µM): 0.254
- relative viability (Everolimus + Pictilisib; first compound 0.3162 µM): 0.295
- relative viability (Everolimus + Pictilisib; first compound 1 µM): 0.336
- relative viability (Everolimus + Palbociclib; first compound 0.01 µM): 0.442
- relative viability (Everolimus + Palbociclib; first compound 0.03162 µM): 0.421
- relative viability (Everolimus + Palbociclib; first compound 0.1 µM): 0.443
- relative viability (Everolimus + Palbociclib; first compound 0.3162 µM): 0.438
- relative viability (Everolimus + Palbociclib; first compound 1 µM): 0.463
